Laboratory results reported in US20060281088A1, “Markers for lxr activation” (priority 2003, published 2006).

Legend:
THP1 macrophages [1] = assay: Gene expression measurement by Gene Chip Microarray in THP1 macrophages; assay type: cell-based, human; conditions: Gene Chip Microarray analysis, result in words
Protocol: Cells were incubated at 37° C. and 5.2% CO2. For experimental treatments, cells were seeded at a density of 1×10^6/ml in 6-well plates in medium containing 100 nM phorbol 12-myristate 13-acetate (PMA) for 72 hours to fully differentiate them into adherent macrophages. The medium was then replaced by culture medium containing PMA with vehicle (DMSO) or test compound for 6 or 24 hours prior to harvesting. Total RNA was isolated using the TriZol reagent (Life Technologies) or the RNeasy mini kit (Qiagen) according to the manufacturer's protocols. To remove contaminating DNA, the samples were treated with RNAse free DNAse (GibCo).
Synthesis of first and second strand cDNA were performed using the SuperScript Choice Gene Chip Kit (Life Technologies) and reagents from Gibco. The double stranded cDNA, containing an incorporated T7 RNA polymerase binding site, was purified by extraction with a mix of phenol:chloroform:isoamylalcohol (Life Technologies). The organic and aqueous phases were separated by Phase Lock Gel (Eppendorf) and double-stranded cDNA was recovered by precipitation according to the manufacturer's protocol and then resuspended in water.
The double-stranded cDNA was converted to biotin-labeled cRNA by in vitro transcription (IVT) using a T7 kit (Ambion) and biotin-containing ribonucleotides (Enzo-LOXO GmbH). […]

THP1 macrophages [2] = assay: Gene expression measurement by Taqman quantitative RT-PCR in THP1 macrophages; assay type: cell-based, human; conditions: result in words
Text: Three oligonucleotides are used: a forward primer, a reverse primer, and a probe. All of them are specific for the target and are able to bind to it. The TaqMan assay uses a probe technology that exploits 5′→3′-nuclease activity of an enzyme, the most commonly used being Taq polymerase. The assay efficiency is largely dependent on this 5′→3′ nuclease activity. In this regard one should be careful in choosing a suitable polymerase. […] The probe is an oligonucleotide with a reporter dye at the 5′ end and a quencher dye at the 3′ end. The fluorescent reporter dye is attached covalently to the 5′ end and can be FAM (6-carboxyfluorescein), TET (tetrachloro-6-carboxyfluorescein), JOE (2,7-dimethoxy-4,5-dichloro-6-carboxyfluorescein), HEX (hexacholoro-6-carboxyfluorescein), or VIC. The reporter is quenched by TAMRA (6-carboxytetramethylrhodamine), bound to the 3′ end by a linker arm. […] An advantage of using DABCYL in the TaqMan probes is its reduced autofluorescence compared with TAMRA When the probe is intact the quencher dye absorbs the fluorescence of the reporter dye due to the proximity between both. […] By the 5′-exonuclease activity of the Taq:polymerase the probe is hydrolyzed and the reporter dye is separated from the quencher, resulting in an increase in fluorescence emission. […]

## O=S(=O)(c1ccccc1)N(CC(F)(F)F)c1ccc(C(O)(C(F)(F)F)C(F)(F)F)cc1 [T0901317]
THP1 macrophages [1]
  Gene expression changes of the listed marker genes (ABCA1, ABCG1, APOC1, APOE, ASM3A, C3F, CDC42EP4, CXCR4 ... PRKCI): strong induction
THP1 macrophages [2]
  Gene expression changes for ABCA1, ABCG1, APOC1, APOE, ASM3A, CDC42EP4, CXCR4, FASN, LDLR, NR1H3, VLDLR: robust and significant increase in expression
